Experimental data from patent publication US20250197399A1, “COMPOUNDS, COMPOSITIONS, AND METHODS” (Tenvie Therapeutics, Inc., priority 2022, published 2025).
Read-outs that look alike come from different tables or passages of the source.

System: NLRP3
Assay: IL-1β secretion assay in PMA-differentiated, LPS/nigericin-stimulated THP-1 cells (ELISA)
Format: cell-based
Conditions: Homo sapiens, THP-1, THP-1 cells, 25 ng/mL LPS then nigericin, IL-1β in supernatant
Outline: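 PMA-differentiated (5 ng/mL, 40 h) THP-1 cells primed with 25 ng/mL LPS in serum-free medium for 2 h, then compound (0.5% DMSO) for 1 h before nigericin, 2 h at 37 °C. Supernatant IL-1β measured by sandwich ELISA; dose-response normalized to LPS+nigericin high and LPS-only low controls.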

[1] = read-out: Activity (IC50 class)

IC50 (read-out: Activity)	IC50 [1]	Structure (SMILES)
0.114 µM	< 1 µM	O=C(CN1CC2(CC2)c2cc(Br)ccc2C1=O)Nc1ncc2nc[nH]c2n1 [Example 55, 2-(6-bromo-1-oxospiro[3H-isoquinoline-4,1′-cyclopropane]-2-yl)-N-(9H-purin-2-yl)acetamide]
0.279 µM	< 1 µM	O=C(CN1CC2(CC2)c2cc(Br)ccc2C1=O)Nc1ncc2c(C(F)(F)F)n[nH]c2n1 [Example 58, 2-(6-bromo-1-oxospiro[3H-isoquinoline-4,1′-cyclopropane]-2-yl)-N-[3-(trifluoromethyl)-1H-pyrazolo[3,4-d]pyrimidin-6-yl]acetamide]
0.162 µM	< 1 µM	O=C(CN1CC2(CC2)c2c(ccc(Br)c2F)C1=O)Nc1ccc2nn[nH]c2c1 [Example 61, N-(3H-benzotriazol-5-yl)-2-(6-bromo-5-fluoro-1-oxospiro[3H-isoquinoline-4,1′-cyclopropane]-2-yl)acetamide]
0.08 µM	< 1 µM	O=C(CN1CC2(CC2)c2c(ccc(Br)c2F)C1=O)Nc1ncc2nc[nH]c2n1 [Example 62, 2-(6-bromo-5-fluoro-1-oxospiro[3H-isoquinoline-4,1′-cyclopropane]-2-yl)-N-(9H-purin-2-yl)acetamide]

More lines, now with the values behind:

Structure (SMILES)	IC50 (read-out: Activity)	IC50 [1]
O=C(CN1C[C@]2(C[C@H]2F)c2cc(Br)ccc2C1=O)Nc1ncc2cn[nH]c2n1 [Example 54, 2-[(2′R,4S)-6-bromo-2′-fluoro-1-oxospiro[3H-isoquinoline-4,1′-cyclopropane]-2-yl]-N-(1H-pyrazolo[3,4-d]pyrimidin-6-yl)acetamide]	0.005 µM	< 1 µM
O=C(CN1CC2(CC2)c2cc(Br)ccc2C1=O)Nc1nc2[nH]ncc2cc1F [Example 59, 2-(6-bromo-1-oxospiro[3H-isoquinoline-4,1′-cyclopropane]-2-yl)-N-[5-fluoro-1H-pyrazolo[3,4-b]pyridin-6-yl]acetamide]	0.322 µM	< 1 µM
COC(=O)C12CC(NC(=O)CN3CC4(CC4)c4cc(Br)ccc4C3=O)(C1)C2 [Example 60, methyl 3-[[2-(6-bromo-1-oxospiro[3H-isoquinoline-4,1′-cyclopropane]-2-yl)acetyl]amino]bicyclo[1.1.1]pentane-1-carboxylate]	0.216 µM	< 1 µM
O=C(CN1CC2(CC2(F)F)c2cc(Br)ccc2C1=O)Nc1ncc2cn[nH]c2n1 (stereo not shown) [Example 63, 2-(6-bromo-1′,1′-difluoro-1-oxospiro[3H-isoquinoline-4,2′-cyclopropane]-2-yl)-N-(1H-pyrazolo[3,4-d]pyrimidin-6-yl)acetamide]	0.034 µM	< 1 µM
